Experimental findings from ChEMBL document CHEMBL1201862, “PubChem BioAssay data set” (2004) are described below.

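Grown in 96-well plates, cells were treated for 48 hours with each compound at five concentrations. Insufficient inhibition: endpoint recorded as highest concentration tested. Here, GI50 denotes the concentration required for 50% inhibition of growth.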 Activity calls are given as the source filed them. No stated cut-off is given here; in the data, active = GI50 up to about 1.1 µM and inactive = higher. Some results are limits rather than exact numbers.

Experiment in all cases: NCI anticancer screen, dose series, 48 h
In assay [1] the test system is MOLT-4.
Assay [2] has as its system SF-539.
Assay [3] deals with HT-29.
Assay [4] concerns HCC 2998.
The subject of assay [5] is A549.
For assay [6], the system named is ACHN.
For assay [7], the system named is CAKI-1.
Assay [8] deals with UACC-62.
Assay [9] relates to SK-OV-3.
In assay [10] the test system is 786-0.
For assay [11], the system named is RPMI-8226.
Assay [12] concerns K562.
For assay [13], the system named is Malme-3M.
The test system of assay [14] is MDA-MB-435.
Assay [15] deals with EKVX.
The subject of assay [16] is MDA-MB-231.
Assay [17] concerns NCI/ADR-RES.
In assay [18] the test system is RXF 393.
Assay [19] concerns SW-620.
The test system of assay [20] is BT-549.

Regarding `CN(C)c1ccc(/C=c2\c3cc([N+](=O)[O-])ccc3n3c2cc(-c2ccccc2)[n+]3C)cc1`, the GI50 was 1.75 µM (inactive) in assay [1]; 0.822 µM (active) in [2]; 1.52 µM (inactive) in [3]; 2.28 µM (inactive) in assay [4]; 2.94 µM (inactive) in assay [5]; 5.51 µM (inactive) in [6]. For the same compound, the GI50 in assay [7] is 7.66 µM (inactive); in [8], 0.678 µM (active); in [9], 3.92 µM (inactive); in assay [10], 3.31 µM (inactive); in [11] it was 0.264 µM (active); in assay [12] it was 0.265 µM (active). For the same compound, the GI50 in assay [13] is 0.55 µM (active); in assay [14], 0.531 µM (active); in assay [15], 0.998 µM (active); in assay [16], 1.73 µM (inactive); in [17] it was 39.8 µM (inactive); in assay [18] it was 1.06 µM (active). Further, the results for the GI50 in assay [19] and in [20] were 0.836 µM (active) and 1.23 µM (inactive), respectively.
Regarding `C/C(=N\NC(=S)NCCNC(=S)N/N=C(\C)c1ccccn1)c1ccccn1`, the GI50 in assay [1] was 2.15 µM (inactive); in assay [2] it was 2.36 µM (inactive); in assay [3], 2.07 µM (inactive); in assay [4] it was 7.28 µM (inactive); in assay [5], 3.21 µM (inactive); in assay [6] it was 1.26 µM (inactive). In addition, the GI50 in [7] was 3.42 µM (inactive); in assay [8], 2.62 µM (inactive); in [9], 4.7 µM (inactive); in assay [10], 1.26 µM (inactive); in assay [11], 1.7 µM (inactive); in assay [12] it was 3.17 µM (inactive). In addition, the GI50 in assay [13] was 2.54 µM (inactive); in [14] it was 3.91 µM (inactive); in assay [15] it was 4.83 µM (inactive); in [16] it was > 20.9 µM (inactive); in assay [17], 1.92 µM (inactive); in [18], 3.16 µM (inactive). Also, the results for the GI50 in assay [19] and in assay [20] were 5.04 µM (inactive) and 2.36 µM (inactive), respectively.
Regarding `N#Cc1ccccc1OCCOc1ccccc1C#N`, the GI50 in [1] is > 100 µM (inactive); in [2], 26.1 µM (inactive); in [3], > 100 µM (inactive); in assay [4], > 100 µM (inactive); in assay [5], > 100 µM (inactive); in assay [6], > 100 µM (inactive). The GI50 in assay [7] is > 100 µM (inactive); in assay [8], > 100 µM (inactive); in assay [9], > 100 µM (inactive); in [10] it was > 100 µM (inactive); in [11] it was > 100 µM (inactive); in assay [12], 20.3 µM (inactive). For the same compound, the GI50 in assay [13], in assay [14], in assay [15], in assay [16], in assay [17] and in assay [18] was > 100 µM (inactive) in each case. In addition, the GI50 in assay [19] and in assay [20] was > 100 µM (inactive) throughout.
For `N#CC(c1ccccc1)N1CCCN(C(C#N)c2ccccc2)C1c1ccccc1O` (stereo not given), the GI50 in [1] is 61.1 µM (inactive); in assay [2] it was 52.1 µM (inactive); in [3] it was 55.8 µM (inactive); in [4] it was > 100 µM (inactive); in [5] it was > 100 µM (inactive); in [6], > 100 µM (inactive). Also, the GI50 is > 100 µM (inactive) in assay [7]; > 100 µM (inactive) in assay [8]; > 100 µM (inactive) in assay [9]; > 100 µM (inactive) in assay [10]; 60.5 µM (inactive) in [11]; > 100 µM (inactive) in assay [12]. For the same compound, the GI50 in assay [13], in [14], in [15], in assay [16], in [17] and in assay [18] was > 100 µM (inactive) throughout. The GI50 in assay [19] and in assay [20] was > 100 µM (inactive) each time.
Turning to `CC1=NN(C(=O)CC(=O)Nc2ccc(C)cc2)C(=O)C1/N=N\c1ccc(S(=O)(=O)c2ccc(/N=N/C3C(=O)N(C(=O)CC(=O)Nc4ccc(C)cc4)N=C3C)cc2)cc1` (stereo not given), the GI50 in [1] was 42.5 µM (inactive); in assay [2], > 100 µM (inactive); in assay [3] it was > 10 µM (inactive); in assay [4], 83.6 µM (inactive); in [5] it was 31.6 µM (inactive); in assay [6], 62.8 µM (inactive). Also, the GI50 is > 100 µM (inactive) in [7]; 65.9 µM (inactive) in assay [8]; 72.4 µM (inactive) in [9]; 21 µM (inactive) in assay [10]; 82.4 µM (inactive) in assay [11]; 4.98 µM (inactive) in assay [12]. In addition, the GI50 in assay [13] is 67 µM (inactive); in [14], 84.3 µM (inactive); in assay [15], > 100 µM (inactive); in assay [16], 35.6 µM (inactive); in [17], > 100 µM (inactive); in [18], > 100 µM (inactive). The GI50 in [19] is 32.7 µM (inactive); in [20], > 100 µM (inactive).
On to `COc1ccccc1C(=O)c1c(N2CCCCC2)c(=O)c1=O`, for which the GI50 in assay [1], in assay [2], in assay [3], in assay [4], in assay [5] and in [6] was > 100 µM (inactive) in each case. Also, the GI50 is > 100 µM (inactive) in assay [7]; > 100 µM (inactive) in assay [8]; > 100 µM (inactive) in assay [9]; > 100 µM (inactive) in assay [10]; 92.7 µM (inactive) in [11]; > 100 µM (inactive) in assay [12]. Also, the GI50 in assay [13], in assay [14], in assay [15], in [16], in assay [17] and in assay [18] was > 100 µM (inactive) each time. Moreover, the GI50 in assay [19] and in assay [20] was > 100 µM (inactive) in each case.
On to `N#Cc1c(-c2ccccc2)cc(Nc2ccc(Cl)cc2)n2c1nc1ccccc12`, for which the GI50 in [1] was 2.34 µM (inactive); in assay [2], 4.39 µM (inactive); in assay [3] it was 2.14 µM (inactive); in [4] it was 3.78 µM (inactive); in [5], 1.71 µM (inactive); in assay [6], 3.03 µM (inactive). The GI50 is 3.59 µM (inactive) in assay [7]; 0.975 µM (active) in [8]; 2.72 µM (inactive) in [9]; 2.62 µM (inactive) in assay [10]; 1.22 µM (inactive) in assay [11]; 1.49 µM (inactive) in [12]. In addition, the GI50 is 5.16 µM (inactive) in [13]; 2.99 µM (inactive) in assay [14]; 1.52 µM (inactive) in assay [15]; 3.27 µM (inactive) in assay [16]; 2.44 µM (inactive) in assay [17]; 4.35 µM (inactive) in assay [18]. Moreover, the GI50 in assay [19] is 4.84 µM (inactive); in assay [20] it was 4.59 µM (inactive).
With `CC[C@]1(O)CC(OC2CC(N(C)C)C(O)C(C)O2)c2c(cc3c(c2O)C(=O)c2c(O)cccc2C3=O)[C@@H]1C(=O)OC` (stereo not given in full), the GI50 in assay [1] was 0.0405 µM (active); in assay [2] it was 0.59 µM (active); in [3] it was 0.107 µM (active); in [4] it was 0.21 µM (active); in assay [5], 0.136 µM (active); in [6], 0.0537 µM (active). Further, the GI50 in [7] is 0.0466 µM (active); in [8], 0.196 µM (active); in [9], 0.333 µM (active); in assay [10] it was 0.205 µM (active); in [11] it was 0.125 µM (active); in [12], 0.0733 µM (active). Besides, the GI50 in assay [13] was 0.245 µM (active); in assay [14] it was 0.291 µM (active); in assay [15], 0.493 µM (active); in assay [16], 0.351 µM (active); in assay [17], 0.269 µM (active); in assay [18], 0.269 µM (active). The GI50 was 0.0392 µM (active) in [19] and 1.16 µM (inactive) in assay [20].
On to `CS(=O)(=O)CS(=O)(=O)OCCCl`, for which the GI50 in assay [1] is 96.2 µM (inactive); in assay [2], 50.4 µM (inactive); in [3], 427 µM (inactive); in [4], 301 µM (inactive); in assay [5], 220 µM (inactive); in assay [6], 124 µM (inactive). Besides, the GI50 in [7] is 207 µM (inactive); in assay [8], 29.5 µM (inactive); in [9], 167 µM (inactive); in assay [10] it was 61.2 µM (inactive); in assay [11] it was 198 µM (inactive); in [12], 216 µM (inactive). Also, the GI50 is 356 µM (inactive) in [13]; 991 µM (inactive) in assay [14]; 366 µM (inactive) in assay [15]; 296 µM (inactive) in [16]; 324 µM (inactive) in assay [17]; 163 µM (inactive) in [18]. Moreover, the GI50 in assay [19] was 115 µM (inactive); in [20], 99.5 µM (inactive).
`OCc1cccc(Nc2nc(O)c3[nH]cnc3n2)c1`: the GI50 in assay [1], in assay [2], in [3], in [4], in assay [5] and in assay [6] was > 100 µM (inactive) throughout. Also, the GI50 in assay [7], in assay [8], in assay [9], in [10], in [11] and in assay [12] was > 100 µM (inactive) each time. Besides, the GI50 in assay [13], in assay [14], in assay [15], in [16], in assay [17] and in assay [18] was > 100 µM (inactive) each time. For the same compound, the GI50 in assay [19] and in [20] was > 100 µM (inactive) each time.
